# Source: patent publication US8591892B2, “FTY720 increases CD74 expression and sensitizes cancer cells to anti-CD74 antibody-mediated cell death” (The Ohio State University, priority 2011, dated 2013)
# Entries after “also recorded” stand apart in the source; their conditions may differ. Where two headings read alike, the source gives them in different places.
# Columns and labels:
# MCL cell lines = assay: Cytotoxicity of OSU-2S; assay type: cell-based
# [1] = system: MCL cell lines (Jeko-1, Mino, UPN-1, Z-138); assay: Immunoblot for LC3-I/LC3-II (autophagic flux); assay type: cell-based, human
# Source text: (§1) FIG. 1. […] Actin was used as loading control. […] Actin was used as loading control.
# Jeko-1 and Mino cells = assay: Acridine orange staining, flow cytometry (lysosomal membrane permeability); assay type: cell-based, human; conditions: 8 hours, vs untreated control
# Experimental: Cells were then stained with AO (1 μg/mL) for 15 minutes. The relative changes in FL1 fluorescence were assessed by flow cytometry. Representative histograms summarizing AO fluorescence intensity of MCL treated with FTY720, chloroquine, rapamycin or combinations are shown (MFI of treated cells is normalized to the untreated controls. (C) Jeko-1 and Mino cells were treated with FTY720 at the indicated concentration in the presence or absence of cathepsin inhibitor III (5 and 10 μM). Cell death was determined by annexin V/PI staining and flow cytometry at 8 hours. Data are shown as percentage of annexin V−/PI− cells (live cells).
# To assess lysosomal membrane permeability, FTY720 treated cells were incubated with acridine orange (MOLECULAR PROBES; INVITROGEN).
# AO at acidic pH (i.e., lysosomal) fluoresces red, however, when AO leaks into a neutral pH (i.e., cytosolic), it causes an increase in green fluorescence that can be detected by flow cytometry.
# [2] = system: surface CD74 on Jeko-1 and Mino cells; assay: CD74-FITC staining and flow cytometry (CD74 MFI); assay type: cell-based, human; conditions: 8 and 24 hours, vs untreated control or rapamycin
# Experimental: (B) CD74 MFI of MCL cells treated with FTY720, chloroquine or rapamycin at the indicated concentrations after 8 and 24 hours. […] P values are calculated comparing FTY720, chloroquine and rapamycin treatment to the untreated control.
# MCL cell lines were treated with FTY720, chloroquine (SIGMA, St Louis, Mo.) or rapamycin (CALBIOCHEM, San Diego, Calif.) for 8 and 24 hours and CD74 mean fluorescence intensity (MFI) was determined relative to a specific isotype control. After treatment, cells (1×10^6) were washed in phosphate-buffered saline (PBS), stained with CD74-FITC (BD BIOSCIENCES, San Jose, Calif.) for 15 minutes at 4° C., then rinsed in PBS and analyzed by flow cytometry (EPICS-XL™; BECKMAN COULTER, Fullerton, Calif.). A total of 10,000 events were collected and analyzed using Windows Multiple Document Interface for Flow Cytometry (WinMDI, Scripps Research Institute, San Diego, Calif.).
# To determine the influence of FTY720 treatment on CD74 surface levels, Jeko-1 and Mino cells were incubated with FTY720, chloroquine or rapamycin for 8 and 24 hours. CD74 MFI values were determined by CD74-FITC staining and flow cytometry.
# [3] = system: MCL cell lines (Jeko-1, Mino, UPN-1, Z-138); assay: Confocal microscopy of total cellular LC3; assay type: cell-based, human
# [4] = system: MCL cell lines (Jeko-1, Mino, UPN-1, Z-138); assay: Immunoblot for p62; assay type: cell-based, human; conditions: UPN-1 and Z-138 cells, 24 hours
# Source text: as §1
# [5] = system: Jeko-1 and Mino cell lines; assay: Transmission electron microscopy of ultrastructural changes; assay type: cell-based, human; conditions: Jeko and Mino cells; chloroquine 40 μM, FTY720 10 μM
# Experimental: Monolayer cells were grown in chamber slides in medium containing chloroquine (40 μM) or FTY720 (10 μM) for 12 hours. Prior to processing, the cells were fixed for 30 min in 2.5% glutaraldehyde in 0.1 M phosphate buffer pH 7.4. […] Images were obtained with a PEI TECHNAI™ G2 Spirit Transmission Electron Microscope.
# We next examined ultrastructural morphologic changes in Jeko-1 and Mino cell lines treated with FTY720 using TEM.
# U87 = assay: Flow cytometry of CD74, HLA-DR, CEACAM5 with directly labeled MAbs, with and without IFN-γ; assay type: cell-based
# Experimental: (§2) Expression of CD74, HLA-DR, and carcinoembryonic antigen (CEACAM5) was determined in untreated cells and cells exposed to 200 U of IFN-γ for 48 h by flow cytometry. Cells were stained with directly labeled MAbs in comparison to a directly labeled human IgG control. Antibodies were labeled using ALEXA FLUOR® 488 (Invitrogen, Carlsbad, Calif.). For determination of cytoplasmic antigen expression, cells were permeabilized prior to staining using the BD CYTOFIX/CYTOPERM™ kit (BD Biosciences, San Jose, Calif.).
# HT29 = assay: as above; assay type: cell-based
# Experimental: as §2
# U118 = assay: as above; assay type: cell-based
# Experimental: as §2
# RL = assay: as above; assay type: cell-based
# Experimental: as §2
# TU118 = assay: as above; assay type: cell-based
# Experimental: as §2
# BxPC-3 = assay: as above; assay type: cell-based
# Experimental: as §2
# Panc-1 = assay: as above; assay type: cell-based
# Experimental: as §2
# LS174T = assay: as above; assay type: cell-based
# Experimental: as §2
# CAG = assay: as above; assay type: cell-based
# Experimental: as §2
# Capan-1 = assay: as above; assay type: cell-based
# Experimental: as §2
# Aspc-1 = assay: as above; assay type: cell-based
# Experimental: as §2
# KMS11 = assay: as above; assay type: cell-based
# Experimental: as §2
# FSCCL = assay: as above; assay type: cell-based
# Experimental: as §2
# Lovo = assay: as above; assay type: cell-based
# Experimental: as §2
# Moser = assay: as above; assay type: cell-based
# Experimental: as §2
# [6] = target: DDD of the RII form of PKA (RIIα dimers) (Homo sapiens, UniProt P13861); conditions: read-out: binding constant for DDD; cited from earlier work
# Chain of DDD of the RII form of PKA (RIIα dimers) (P13861 whole entry, canonical isoform): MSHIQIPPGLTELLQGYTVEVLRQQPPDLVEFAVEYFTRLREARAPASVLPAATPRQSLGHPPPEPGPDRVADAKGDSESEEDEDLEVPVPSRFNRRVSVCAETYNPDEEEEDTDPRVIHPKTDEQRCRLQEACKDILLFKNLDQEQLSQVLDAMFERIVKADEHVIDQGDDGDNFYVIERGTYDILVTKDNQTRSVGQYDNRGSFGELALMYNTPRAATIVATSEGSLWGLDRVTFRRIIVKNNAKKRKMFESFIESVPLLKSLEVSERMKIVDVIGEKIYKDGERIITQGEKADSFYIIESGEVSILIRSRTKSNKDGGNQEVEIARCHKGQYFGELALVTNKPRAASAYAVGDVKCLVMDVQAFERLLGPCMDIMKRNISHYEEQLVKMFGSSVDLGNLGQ
# [7] = system: RII isoform of PKA compared with the RI isoform; conditions: cited from earlier work
# [8] = system: CD74 in Jeko-1, Mino, UPN-1 and Z-138 cells; assay: Confocal microscopy of total CD74 with rhodamine-conjugated milatuzumab; assay type: cell-based, human; conditions: Jeko-1 and Mino cells, non-immobilized, 5 μg/ml
# Experimental: Cells were stained with an anti-CD74 antibody (FITC conjugated and CD74 MFI was measured by flow cytometry. Representative histograms summarizing the MFI of untreated and treated Jeko-1, Mino, UPN-1 and Z-138 cells are shown. (C) The amount of total cellular CD74 was determined by confocal microscopy. Jeko-1, Mino, UPN-1 and Z-138 cells were treated with FTY720 at the indicated doses, chloroquine (40 μM), rapamycin (10 μM) or the combination of FTY720 and chloroquine, for 4, 8 and 24 hours. CD74 fluorescence intensity was measured in 4 microscopic fields and integrated intensity was averaged relative to the number of cells per field (˜180-220 cells per condition).
# MCL cells for confocal fluorescence microscopy were fixed and stained as previously described (Alinari et al., 2011, Blood 117:4530-41). Briefly, after exposure to drugs, cells were made adherent on a microscope slide by centrifugation. Immediately after cytospin, cells were fixed in cold acetone for two minutes. For CD74 immunofluorescence, the cells were incubated with rhodamine-conjugated milatuzumab. […] Nuclei were stained blue with DAPI (Vector laboratories, Burlingame, Calif.). […] For quantification, 4 microscopic fields per slide were analyzed. Nuclei count was performed using an edge constrained marker-controlled watershed for iterative fluorescence microscopic cell image splitting.
compound,measurement,setting,value
"CCC[C@@](N)(CO)CCc1ccc(OCCCCCC(C)C)cc1 [OSU-2S, (S)-2-amino-2-(4-[(6-methylheptyl)-oxy]phenethyl)pentan-1-ol]",cytotoxicity,MCL cell lines; MCL cell lines,exhibited cytotoxicity
same,cytotoxic activity,MCL cell lines; MCL cell lines and primary cells,significant cytotoxic activity
same,LC3-II levels,"[1]; Jeko-1, Mino and Z-138 cell lines, 24 hours, Western blotting",increased levels of LC3-II
CCN(CC)CCCC(C)Nc1ccnc2cc(Cl)ccc12 (stereo not drawn) [chloroquine],acridine orange green fluorescence (FL1),Jeko-1 and Mino cells,slight increase of green fluorescence
same,CD74 MFI (surface),[2],slight increase of CD74 MFI
same,LC3 fluorescence intensity,[3],statistically significant increase in LC3 fluorescence intensity
same,p62 levels,[4],significant increase of p62 levels
same,LC3-II levels,[1],significant increase in LC3-II levels; also recorded: increased levels of LC3-II
same,ultrastructural morphologic changes (TEM),[5],increased accumulation of autophagosomes
"Labetuzumab: anti-CEA antibody, directly labeled",% change of cell surface expression with IFNγ,U87; U87,23.8%
same,% change of cytoplasmic expression with IFNγ,U87; U87,79.0%
same,Cell surface expression (staining with directly labeled MAb),"U87; U87 + IFNγ 200 U, 48 h",4.5
same,Cell surface expression (staining with directly labeled MAb),"U87; U87, without IFN-γ",3.7
same,% change of cell surface expression with IFNγ,HT29; HT29,213.5%
same,% change of cytoplasmic expression with IFNγ,HT29; HT29,122.7%
same,Cell surface expression (staining with directly labeled MAb),"HT29; HT29 + IFNγ 200 U, 48 h",34.9
same,Cell surface expression (staining with directly labeled MAb),"HT29; HT29, without IFN-γ",11.1
same,% change of cell surface expression with IFNγ,U118; U118,2.4%
same,% change of cytoplasmic expression with IFNγ,U118; U118,78.2%
same,Cell surface expression (staining with directly labeled MAb),"U118; U118 + IFNγ 200 U, 48 h",5.6
same,Cell surface expression (staining with directly labeled MAb),"U118; U118, without IFN-γ",5.5
same,% change of cell surface expression with IFNγ,RL; RL,17.3%
same,% change of cytoplasmic expression with IFNγ,RL; RL,37.9%
same,Cell surface expression (staining with directly labeled MAb),"RL; RL + IFNγ 200 U, 48 h",2.9
same,Cell surface expression (staining with directly labeled MAb),"RL; RL, without IFN-γ",2.4
same,% change of cell surface expression with IFNγ,TU118; TU118,13.0%
same,% change of cytoplasmic expression with IFNγ,TU118; TU118,115.5%
same,Cell surface expression (staining with directly labeled MAb),"TU118; TU118 + IFNγ 200 U, 48 h",5.29
same,Cell surface expression (staining with directly labeled MAb),"TU118; TU118, without IFN-γ",4.68
same,% change of cell surface expression with IFNγ,BxPC-3; BxPC-3,25.6%
same,% change of cytoplasmic expression with IFNγ,BxPC-3; BxPC-3,52.7%
same,Cell surface expression (staining with directly labeled MAb),"BxPC-3; BxPC-3 + IFNγ 200 U, 48 h",7.0
same,Cell surface expression (staining with directly labeled MAb),"BxPC-3; BxPC-3, without IFN-γ",5.6
same,% change of cell surface expression with IFNγ,Panc-1; Panc-1,6.3%
same,% change of cytoplasmic expression with IFNγ,Panc-1; Panc-1,161.2%
same,Cell surface expression (staining with directly labeled MAb),"Panc-1; Panc-1 + IFNγ 200 U, 48 h",4.4
same,Cell surface expression (staining with directly labeled MAb),"Panc-1; Panc-1, without IFN-γ",4.1
same,% change of cell surface expression with IFNγ,LS174T; LS174T,167.9%
same,% change of cytoplasmic expression with IFNγ,LS174T; LS174T,195.9%
same,Cell surface expression (staining with directly labeled MAb),"LS174T; LS174T + IFNγ 200 U, 48 h",163.7
same,Cell surface expression (staining with directly labeled MAb),"LS174T; LS174T, without IFN-γ",61.1
same,% change of cell surface expression with IFNγ,CAG; CAG,3.0%
same,% change of cytoplasmic expression with IFNγ,CAG; CAG,27.4%
same,Cell surface expression (staining with directly labeled MAb),"CAG; CAG + IFNγ 200 U, 48 h",5.2
same,Cell surface expression (staining with directly labeled MAb),"CAG; CAG, without IFN-γ",5.0
same,Cell surface expression (staining with directly labeled MAb),"Capan-1; Capan + IFNγ 200 U, 48 h",48.8
same,% change of cell surface expression with IFNγ,Capan-1; Capan-1,−15.1%
same,% change of cytoplasmic expression with IFNγ,Capan-1; Capan-1,8.7%
same,Cell surface expression (staining with directly labeled MAb),"Capan-1; Capan-1, without IFN-γ",57.5
same,% change of cell surface expression with IFNγ,Aspc-1; Aspc-1,26.3%
same,% change of cytoplasmic expression with IFNγ,Aspc-1; Aspc-1,53.2%
same,Cell surface expression (staining with directly labeled MAb),"Aspc-1; Aspc-1 + IFNγ 200 U, 48 h",66.8
same,Cell surface expression (staining with directly labeled MAb),"Aspc-1; Aspc-1, without IFN-γ",52.9
same,% change of cell surface expression with IFNγ,KMS11; KMS11,7.1%
same,% change of cytoplasmic expression with IFNγ,KMS11; KMS11,−11.4%
same,Cell surface expression (staining with directly labeled MAb),"KMS11; KMS11 + IFNγ 200 U, 48 h",2.3
same,Cell surface expression (staining with directly labeled MAb),"KMS11; KMS11, without IFN-γ",2.1
same,% change of cell surface expression with IFNγ,FSCCL; FSCCL,7.6%
same,% change of cytoplasmic expression with IFNγ,FSCCL; FSCCL,100.7%
same,Cell surface expression (staining with directly labeled MAb),"FSCCL; FSCCL + IFNγ 200 U, 48 h",2.8
same,Cell surface expression (staining with directly labeled MAb),"FSCCL; FSCCL, without IFN-γ",2.6
same,% change of cell surface expression with IFNγ,Lovo; Lovo,48.6%
same,% change of cytoplasmic expression with IFNγ,Lovo; Lovo,52.4%
same,Cell surface expression (staining with directly labeled MAb),"Lovo; Lovo + IFNγ 200 U, 48 h",84.4
same,Cell surface expression (staining with directly labeled MAb),"Lovo; Lovo, without IFN-γ",56.8
same,% change of cell surface expression with IFNγ,Moser; Moser,20.9%
same,% change of cytoplasmic expression with IFNγ,Moser; Moser,41.8%
same,Cell surface expression (staining with directly labeled MAb),"Moser; Moser + IFNγ 200 U, 48 h",77.2
same,Cell surface expression (staining with directly labeled MAb),"Moser; Moser, without IFN-γ",63.8
QIEYLAKQIVDNAIQQA [AKAP-IS],Kd,[6],400 pM
QIEYVAKQIVDYAIHQA [SuperAKAP-IS],selectivity for RII over RI isoform of PKA,[7],five order of magnitude higher selectivity
rhodamine-conjugated milatuzumab: fluorescence labeled milatuzumab made with NHS-rhodamine,internalization of CD74,[8],rapid internalization of CD74
